Test results: US7067155B2, “Anti-inflammatory humate compositions and methods of use thereof” (TBNI, Inc., priority 2003, dated 2006)

Tested on: carrageenan-induced edema
Assay: Carrageenan-induced hind paw edema in rats, humate in chow for 37 days with or without indomethacin (Example 3)
Assay type: in vivo, rat
Conditions: indomethacin only, 3 mg/kg subcutaneously 30 min before carrageenan; P<0.05
Source text: Male Sprague Dawley rats weighing approximately 50 g were purchased from Harlan U.S. and housed in wire cages in the animal facility at Mercer University School of Pharmacy. The animals were given a short period of time to acclimate to the new environment and received powdered rat chow from Purina and water ad libitum. At the beginning of the experimental period, the rats were divided into six groups of eight each. Control and indomethacin only groups received only powdered rat chow for the entire length of the experiment. For the four other groups, insoluble granular Menefee Humate® was mixed with the powdered rat chow and placed in feeders. Rats received chow with either 0.1%, 0.5% or 1.0% insoluble, granular Menefee Humate® by weight. After 37 days of receiving humate in their food, the animals weighed approximately 278 g, which in an appropriate size for inducing inflammation. An amount of indomethacin sufficient to achieve 50% inhibition of carrageenan-induced edema (3 mg/kg) was administered to the indomethacin only group and to the 0.1% humate plus indomethacin group. The indomethacin was administered subcutaneously 30 minutes before the administration of carageenan. The rats were then injected in one hind paw with carrageenan (2%). After three hours, the hind paws were measured by mercury displacement.

## COc1ccc2c(c1)c(CC(=O)O)c(C)n2C(=O)c1ccc(Cl)cc1 [indomethacin]
  inhibition of carrageenan-induced edema: ~50%
